The subject of one assay is MCF7. Briefly: Cytotoxicity against human MCF7 cells assessed as reduction in cell viability after 72 hrs by MTT assay. In kind it is functional. Particulars: MCF7, 72 h. In general terms: Tetrazolium dyes change colour on reduction, which living cells bring about.
Assay [1] addresses Tyrosyl-DNA phosphodiesterase 1 (Homo sapiens, UniProt Q9NUW8). The experiment in a line: Inhibition of TDP1 (unknown origin) expressed in Escherichia coli BL21 (DE3) using 5'-FAM-AGGATCTAAAAGACTT-BHQ-3' as substrate preincubated for 30 mins followed by substrate addition by fluorescence assay.
The next assay deals with HCT-116. Briefly: Cytotoxicity against human HCT116 cells assessed as growth inhibition after 72 hrs by MTT assay. The format is functional. The following applies: HCT-116, 72 h.
For the next assay, the system named is A549. Briefly: Cytotoxicity against human A549 cells assessed as growth inhibition after 72 hrs by MTT assay. In kind it is functional. Particulars: A549, 72 h.
Assay [2] has as its target T1, DNA topoisomerase I (Bos taurus) (UniProt F1MN93).
T1 sequence (whole entry): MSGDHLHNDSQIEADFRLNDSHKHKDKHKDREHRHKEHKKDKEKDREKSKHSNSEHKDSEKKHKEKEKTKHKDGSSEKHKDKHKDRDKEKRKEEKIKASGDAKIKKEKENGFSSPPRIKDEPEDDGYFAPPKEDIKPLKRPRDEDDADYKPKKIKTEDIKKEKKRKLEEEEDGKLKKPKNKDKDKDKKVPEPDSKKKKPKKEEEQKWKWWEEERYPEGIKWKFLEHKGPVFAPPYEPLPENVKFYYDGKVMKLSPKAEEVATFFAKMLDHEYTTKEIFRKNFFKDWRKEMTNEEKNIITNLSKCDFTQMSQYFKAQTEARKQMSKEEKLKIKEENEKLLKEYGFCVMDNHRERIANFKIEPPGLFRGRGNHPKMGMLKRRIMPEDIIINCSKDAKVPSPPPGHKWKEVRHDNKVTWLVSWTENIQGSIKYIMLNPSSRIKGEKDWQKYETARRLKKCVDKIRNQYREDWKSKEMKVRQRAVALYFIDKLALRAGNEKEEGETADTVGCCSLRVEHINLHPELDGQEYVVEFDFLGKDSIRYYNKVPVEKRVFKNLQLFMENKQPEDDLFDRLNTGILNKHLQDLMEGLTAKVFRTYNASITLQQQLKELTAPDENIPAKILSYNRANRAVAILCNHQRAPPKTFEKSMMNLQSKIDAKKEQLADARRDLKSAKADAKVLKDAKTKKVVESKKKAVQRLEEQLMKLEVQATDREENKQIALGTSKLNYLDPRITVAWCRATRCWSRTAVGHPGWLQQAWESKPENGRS
The experiment in a line: Inhibition of calf thymus Top1 assessed as reduction in supercoiled pBR322 DNA relaxation at 100 uM measured after 30 mins by agarose gel electrophoresis relative to camptothecin.

Assay [3] deals with T1, DNA topoisomerase I (Bos taurus). The experiment in a line: Inhibition of calf thymus Top1-mediated supercoiled pBR322 DNA cleavage assessed as nicked DNA content at 50 uM measured after 30 mins by ethidium bromide staining agarose gel electrophoresis. On the set-up: scale not given: the % may be the effect or the level left.
Assay [4] shares this target. Briefly: Inhibition of calf thymus Top1 assessed as reduction in Top1-supercoiled pBR322 DNA covalent cleavage formation at 25 to 50 uM measured after 30 mins by electrophoretic mobility shift assay.
The target is the same in assay [5]. Briefly: Inhibition of calf thymus Top1-mediated supercoiled pBR322 DNA cleavage assessed as nicked DNA content at 25 uM measured after 30 mins by ethidium bromide staining agarose gel electrophoresis. Details: scale not given: the % may be the effect or the level left.
Assay [6] has the same target. The experiment in a line: Inhibition of calf thymus Top1 assessed as reduction in supercoiled pBR322 DNA relaxation measured after 30 mins by agarose gel electrophoresis.

Calls of active or inactive are those of the source. No cut-off for these calls is given here.

Chain of Tyrosyl-DNA phosphodiesterase 1 (Q9NUW8 whole entry): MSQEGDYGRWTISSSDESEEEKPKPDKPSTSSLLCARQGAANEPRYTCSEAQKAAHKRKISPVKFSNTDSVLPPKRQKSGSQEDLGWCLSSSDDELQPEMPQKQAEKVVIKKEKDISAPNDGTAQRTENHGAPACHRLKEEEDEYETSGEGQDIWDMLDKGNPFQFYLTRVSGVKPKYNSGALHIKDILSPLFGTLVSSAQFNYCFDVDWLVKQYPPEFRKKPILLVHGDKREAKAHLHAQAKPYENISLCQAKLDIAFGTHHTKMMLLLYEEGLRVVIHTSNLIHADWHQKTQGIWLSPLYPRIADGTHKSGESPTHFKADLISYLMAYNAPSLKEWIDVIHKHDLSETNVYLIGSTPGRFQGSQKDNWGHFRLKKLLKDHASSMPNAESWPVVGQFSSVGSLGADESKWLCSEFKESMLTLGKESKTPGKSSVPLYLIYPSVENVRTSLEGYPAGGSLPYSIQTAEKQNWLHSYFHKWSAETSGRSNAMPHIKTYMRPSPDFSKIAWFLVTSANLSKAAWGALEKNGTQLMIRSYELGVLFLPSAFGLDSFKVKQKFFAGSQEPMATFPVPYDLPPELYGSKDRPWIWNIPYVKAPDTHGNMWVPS

With `C[C@@H]1CC[C@]2(C(=O)O)CC[C@]3(C)C(=CC[C@@H]4[C@@]5(C)C[C@@H](O)OCC(C)(C)[C@@H]5CC[C@]43C)[C@@H]2[C@]1(C)O`, the GI50 with MCF7 was over 100 µM; in the assay with HCT-116, 23 µM; in the assay on A549 it was over 100 µM. In [1], this molecule registered an IC50 of over 100 µM. Also, in assay [2], the inhibition was under 29%.

In the case of `CC(C)c1cc2c(cc1O)[C@]1(C)CCC[C@](C)(C(=O)O)[C@H]1CC2`, the GI50 in the assay on MCF7 worked out at 60 µM; in the assay on HCT-116, 68 µM; in the assay with A549 it was 36 µM. Moreover, the IC50 in [1] is over 100 µM. In addition, in assay [2], the inhibition was 30 to 59%.

On to `CC1(C)CC[C@]2(C(=O)O)CC[C@]3(C)C(=CC[C@@H]4[C@@]5(C)C[C@H](O)[C@H](O)[C@@](C)(COC(C)(C)O)[C@@H]5CC[C@]43C)[C@@H]2C1`, for which the GI50 was determined as 11 µM in the assay on MCF7, 55 µM with HCT-116 and 37 µM in the assay with A549. Also, the IC50 in assay [1] was over 100 µM. Further, the inhibition in assay [2] was 60 to 89%.

Regarding `CC(=O)O[C@H]1CC[C@]2(C)[C@H]3CC=C4[C@@H]5[C@@H](C)[C@H](C)CC[C@]5(C(=O)O)CC[C@@]4(C)[C@]3(C)CC[C@H]2C1(C)C` [O-ACETYLURSOLIC ACID], the GI50 in the assay on MCF7 came out at 6.5 µM; with HCT-116 it was 21 µM; with A549, 48 µM. For the same molecule, the inhibition in assay [2] is over 90%.

Take `CC(C)c1ccc2c(c1O)CC[C@@H]1[C@@](C)(CO)CCC[C@@]21C`: the GI50 in the assay with MCF7, with HCT-116 and in the assay with A549 was over 100 µM in each case. This molecule also showed an IC50 in assay [1] of over 100 µM. In addition, the inhibition in [2] was determined as 0%.

On to `COc1cc(/C=C/C(=O)O[C@H]2[C@H](O)C[C@]3(C)[C@H]4CC=C5[C@@H]6CC(C)(C)CC[C@]6(C(=O)O)CC[C@@]5(C)[C@]4(C)CC[C@H]3C2(C)C)ccc1O`, for which the GI50 with MCF7 was 67 µM; in the assay on HCT-116, 22 µM; in the assay with A549, 59 µM. In assay [1], this molecule had an IC50 of over 100 µM. For the same molecule, the Activity in assay [3] came to 10%; in assay [5] it was 9%. Further, the inhibition result in assay [4] was “Active”. Further, the inhibition was over 90% in assay [2] and “Dose-dependent effect” in assay [6].

In the case of `C=C1C(=O)[C@]23C[C@H]1CC[C@H]2[C@]1(C)CC[C@@H](O)C(C)(C)[C@H]1C[C@@H]3O`, the figures for the GI50 in the assay with MCF7, in the assay on HCT-116 and in the assay on A549 were 3.5 µM, 2.7 µM and 4.8 µM, respectively. This molecule had a concentration for half-maximal inhibition (IC50) in assay [1] of over 100 µM. The inhibition in [2] lay within 60 to 89%.

`CC1(C)CC[C@]2(C(=O)O)CC[C@]3(C)C(=CC[C@@H]4[C@@]5(C)C[C@@H](O)[C@@H](O)[C@@](C)(CO)[C@@H]5CC[C@]43C)[C@@H]2C1`: the GI50 with MCF7, with HCT-116 and in the assay with A549 was over 100 µM each time. The inhibition in assay [2] is 0%.

Consider `CC(C)c1cc2c(cc1O)[C@@]1(C)CCC[C@](C)(CO)[C@@H]1CC2`, for which the GI50 with MCF7 turned out to be 92 µM; with HCT-116, 51 µM; with A549, 91 µM. Also, the IC50 in [1] was over 100 µM. The inhibition in [2] lay within 30 to 59%.

Turning to `CC(C)c1ccc(O)c2c1CC[C@H]1[C@@](C)(C(=O)O)CCC[C@]21C`, the GI50 turned out to be 60 µM in the assay with MCF7, 31 µM with HCT-116 and 41 µM in the assay with A549. Further, in assay [1], the IC50 was over 100 µM. Further, in assay [2], the inhibition lay in the range of 30 to 59%.

With `C[C@@H]1CC[C@]2(C(=O)O)CC[C@]3(C)C(=CC[C@@H]4[C@@]5(C)C[C@@H](O)[C@@H](O)C(C)(C)[C@@H]5CC[C@]43C)[C@@H]2[C@]1(C)O` [EUSCAPHIC ACID], the GI50 with MCF7 amounted to 41 µM; in the assay on HCT-116, 22 µM; with A549 it was 43 µM. Moreover, in assay [1], the IC50 was over 100 µM. The inhibition in assay [2] was over 90%.

For the molecule `C=C1C(=O)O[C@H]2C3=CC[C@@H]4C(C)(C)C(=O)CC[C@@]4(C)[C@@H]3CC[C@@H]12`, the GI50 in the assay with MCF7 stood at 15 µM; with HCT-116, 31 µM; in the assay on A549, 51 µM. The IC50 in assay [1] was over 100 µM. Moreover, the inhibition in assay [2] was 60 to 89%.

In the case of `CC(=O)O[C@H]1CC[C@]2(C)[C@H]3CC=C4[C@H]5[C@](C(=O)O)(CC[C@@H](C)[C@@]5(C)O)CC[C@@]4(C)[C@]3(C)CC[C@H]2C1(C)C`, the GI50 in the assay with MCF7, in the assay with HCT-116 and with A549 was over 100 µM each time. Moreover, the IC50 in [1] was over 100 µM. Moreover, in [2], the inhibition worked out at 0%.

As for `C[C@H]1[C@H](C)CC[C@]2(C(=O)O)CC[C@]3(C)C(=CC[C@@H]4[C@@]5(C)C[C@@H](O)[C@H](O)C(C)(C)[C@@H]5CC[C@]43C)[C@H]12` [COROSOLIC ACID], the concentration for 50% growth inhibition (GI50) with MCF7 is 62 µM; with HCT-116 it was over 100 µM; in the assay on A549, over 100 µM. The same molecule gave an IC50 in [1] of over 100 µM. For the same molecule, in assay [2], the inhibition was under 29%.

As for `CC1(C)CC[C@]2(C(=O)O)CC[C@]3(C)C(=CC[C@@H]4[C@@]5(C)C[C@@H](O)[C@H](O)[C@](C)(CO)[C@@H]5CC[C@]43C)[C@@H]2C1`, the GI50 turned out to be 14 µM with MCF7, 29 µM with HCT-116 and 22 µM in the assay with A549. Also, the inhibition in assay [2] was 60 to 89%.

For the molecule `C[C@H]1[C@H](C)CC[C@]2(CO)CC[C@]3(C)C(=CC[C@@H]4[C@@]5(C)CC[C@H](O)C(C)(C)[C@@H]5CC[C@]43C)[C@H]12` [UVAOL], the GI50 in the assay with MCF7 is 93 µM; in the assay with HCT-116, 37 µM; with A549, 45 µM. In addition, in assay [1], the IC50 is over 100 µM. Besides, in [2], the inhibition fell in the range of 30 to 59%.

Consider `C=C1C(=O)O[C@H]2C3=CC[C@@H]4[C@](C)(CO)CCC[C@@]4(C)[C@@H]3CC[C@@H]12`, for which the GI50 came out at 40 µM in the assay with MCF7, 42 µM with HCT-116 and 51 µM with A549. The inhibition in assay [2] was 30 to 59%.

As for `C[C@@H]1CC[C@@]23CC[C@]4(C)[C@@](C=C[C@@H]5[C@@]6(C)CC[C@H](O)C(C)(C)[C@@H]6CC[C@]54C)(OC2=O)C3[C@H]1C` (stereo partly drawn), the GI50 in the assay on MCF7, with HCT-116 and with A549 was over 100 µM throughout. Further, in assay [2], the inhibition was determined as 0%.

For `C=C1C(=O)O[C@H]2C3=CC[C@@H]4C(C)(C)[C@H](O)CC[C@@]4(C)[C@@H]3CC[C@@H]12`, the GI50 with MCF7 was found to be 53 µM; with HCT-116 it was 35 µM; with A549 it was 35 µM. In assay [1], this molecule displayed an IC50 of over 100 µM. Besides, the inhibition in assay [2] fell in the range of 30 to 59%.

For `CO[C@@H]1C[C@]2(C)[C@H]3CC=C4[C@H]5[C@](C(=O)O)(CC[C@@H](C)[C@@]5(C)O)CC[C@@]4(C)[C@]3(C)CC[C@H]2C(C)(C)CO1`, the results for the GI50 in the assay with MCF7, in the assay on HCT-116 and in the assay on A549 were 31 µM, 37 µM and 63 µM, respectively. In addition, in assay [1], the IC50 was over 100 µM. In addition, in [2], the inhibition was in the range of 30 to 59%.

Turning to `CC1(C)CC[C@]2(C(=O)O)CC[C@]3(C)C(=CC[C@@H]4[C@@]5(C)C[C@@H](O)[C@@H](O)C(C)(C)[C@@H]5CC[C@]43C)[C@@H]2C1`, the GI50 in the assay with MCF7 was over 100 µM; in the assay on HCT-116 it was 51 µM; in the assay on A549, over 100 µM. This molecule displayed an IC50 in assay [1] of over 100 µM. Further, the inhibition in assay [2] was in the range of 30 to 59%.

Regarding `CC1(C)CC[C@]2(C(=O)O)CC[C@]3(C)C(=CC[C@@H]4[C@@]5(C)CC[C@H](O)C(C)(C)[C@@H]5CC[C@]43C)[C@@H]2C1` [OLEANOLIC_ACID], the GI50 in the assay with MCF7, in the assay with HCT-116 and in the assay on A549 was over 100 µM in each case. The inhibition in [2] came to 0%.

Usually GI50 stands for the concentration giving 50% growth inhibition. By IC50 is commonly meant the concentration that gives 50% inhibition. One may read the inhibition as the percentage by which the read-out fell short of the control.

Values taken from ChEMBL document CHEMBL4622855, “Secondary metabolites from Isodon ternifolius (D. Don) Kudo and their anticancer activity as DNA topoisomerase IB and Tyrosyl-DNA phosphodiesterase 1 inhibitors” (Bioorg Med Chem, 2020).
